For one experiment, the system named is thyroglobulin. Kind of experiment: Serum thyroglobulin, chemiluminescent immunometric assay (IMMULITE 2000), pre- and post-treatment with E7080. The class given is in vivo, human. Conditions: 48 days (within 2 cycles) after treatment; decrease continued to cycle 8.
Experiment [1] deals with differentiated thyroid cancer patients. Kind of experiment: Tumor shrinkage (percent change of sum of diameters of target lesions) in E7080-treated DTC patients. In kind it is in vivo, human. How it is done:
The period during which a patient takes E7080 was artificially divided into different Cycles for ease of evaluation and tracking. Patients received E7080 at a dose of 24 mg oral once daily in 28 day cycles. For analysis purposes, assessments of clinical outcomes were performed at the time of the 9 month and at 14 month minimum follow-up. For the E7080 Thyroid Cancer trial, each Cycle is 28 days (4 weeks) so Day 1-28 is cycle 1; Day 29 is Day 1 of Cycle 2; and Day 57 is Day 1 of Cycle 3. Blood samples were collected for pharmacokinetic (PK) analysis on Cycle 1 Days 1 and 8, Cycle 2 Day 1, and Cycle 3 Day 1. A total of 9 samples per patient were collected as follows: Cycle 1 Day 1: immediately prior to the dose of E7080, and at 0.5 and 2 hours following the first dose of E7080 (post-dose); Cycle 1 Day 8: immediately prior to the dose of E7080; Cycle 2 Day 1: immediately prior to the dose of E7080, 0.5 and 2 hours post-dose; Cycle 3 Day 1: immediately prior to the dose of E7080 and 2 hours post-dose. For analysis of progression free survival, PK parameter was used as a covariate in Cox proportional hazards model.
“Tumor shrinkage” (TS) means percent change of sum of diameters of target lesions, taking as reference the baseline sum diameters.
Also changes in thyroglobulin levels were associated with tumor shrinkage after completion of cycle 2 (56 days after treatment) (Speaman's rank correlation test, Table 8, middle).
Next, the factors associated with tumor shrinkage were investigated (Pearson's correlation coefficient test, Table 11).

Experiment [2] deals with thyroid, kidney and endometrial cancers, as well as melanoma. The following applies: phase I; cited from earlier work.

The values that follow come from patent publication US9945862B2, “Biomarkers for predicting and assessing responsiveness of thyroid and kidney cancer subjects to lenvatinib compounds” (Eisai R&D Management Co., Ltd., priority 2011, dated 2018).

For `COc1cc2nccc(Oc3ccc(NC(=O)NC4CC4)c(Cl)c3)c2cc1C(N)=O` [E7080, 4-(3-chloro-4-(cyclopropylaminocarbonyl)aminophenoxy)-7-methoxy-6-quinolinecarboxamide], in the experiment with thyroglobulin, the “Change in serum thyroglobulin levels after treatment” value was “significantly decreased”. The “% of tumor shrinkage (Median)” value in experiment [1] (KRAS, NRAS (any of gene) mutation patients) is on record as −44.5%; in experiment [1] (KRAS, NRAS wild type patients), −31.0%; in experiment [1] (NRAS mutation patients) it was −45.5%; in experiment [1] (NRAS wild type patients), −35.5%. Besides, the Clinical response entry in experiment [2] is listed as “response to treatment was observed”.
